Source: patent US7449195B2 (priority 2001, dated 2008)
Read-outs that look alike come from different tables or passages of the source.

Tested on: Phytophthora infestans
Assay type: in vivo
Details: individual active compound, tomato leaves, protective, evaluated after 6 days

Row | SMILES | Efficacy in % of the untreated control (0.05 ppm in the spray liquor) | Efficacy in % of the untreated control (0.1 ppm in the spray liquor) | Efficacy in % of the untreated control (0.2 ppm in the spray liquor)
1 | Cc1ccc(C(C)NC(=O)[C@@H](NC(=O)OC(C)C)C(C)C)cc1 (stereo partly drawn) [II-3, iprovalicarb] | 29% | 53% | 70%
2 | Cc1ccc(-c2c(Cl)nc(C#N)n2S(=O)(=O)N(C)C)cc1 [Ia, cyazofamid] | 53% | 70% | 82%
